Source: patent US8987246B2, “Methods for treatment of autism spectrum disorder” (The Johns Hopkins University, priority 2012, dated 2015)

Columns and labels:
[1] = test system: subjects with Smith-Lemli-Opitz Syndrome; test: Retrospective analysis of rate of change in current state ADI scores before and after cholesterol supplementation; type: in vivo, human; details: for Cholesterol effect (regression coefficient) on average change in ADI Nonverbal score per year / Cholesterol effect (regression coefficient) on average change in ADI Repetitive score per year / Cholesterol effect (regression coefficient) on average change in ADI Social score per year / Cholesterol effect (regression coefficient) on average change in ADI Verbal score per year: negative = improvement
Method: Cholesterol Supplementation Improved Behavioral Symptoms and May Improve ASD Features in SLOS. The Autism Diagnostic Interview was conducted with 6 SLOS individuals, and data was obtained for 3 “current state” time-points: age 4-5, just before starting cholesterol supplementation, and present while on cholesterol. The change in the score of three ADI algorithm domains—Social, Communication, and Restricted, Repetitive, and Stereotyped Behavior—was estimated. Because the time between visits varied from subject to subject, a model was developed to control for age and time lapse between tests. A detailed description of the model and outcomes is included in Example 1. In summary, on the Social domain, the individuals on cholesterol supplementation improved by an average of 7.07 points more than children not on supplementation (p value 0.008). The ADI Communication domain has a non-verbal score that is completed for all individuals and a verbal score that is completed in those individuals who have phrase speech. The value for the non-verbal score is within the verbal total score. In the non-verbal children, the language domain score improved 2.51, p value 0.04. […] In the Repetitive domain, the children worsened an average of 1.54 points (p value<0.001) (Example 1).
The variables listed in the analysis of the primary outcomes are below. i=1, . . . , 6 children, j=2, 3 visits • socialchij=average change in social measure per year for child i between age at visit j and age at visit j−1. (More specifically, socialchij is social score at visit j minus social score at visit j−1, divided by the number of years between visits j and j−1.) • verbalchij=average change in verbal measure per year for child i between age at visit j and age at visit j−1. • nonverbalchij=average change in nonverbalchij measure per year for child i between age at visit j and age at visit j−1. • repetchij=average change in repetitive measure per year for child i between age at visit j and age at visit j−1.
ageij=age of child i at visit j at which measure was performed
agedifij=number of years between visit j and visit j−1
agecholij=age at which cholesterol supplementation began for child i
cholij=1 if cholesterol supplementation has occurred at prior to visit j for child i.
Note that the large improvements are consistent with large negative values. In other words, if a child has a large improvement in social score between visits j−1 and j, this will be reflected as a large negative value for socialchij.
So, the idea is to model the average change in scores before and after supplementation, adjusting for age, the number of years between visits, and the age at which supplementation occurred. To do this, our linear model for “social” is socialchij=β0i+[…]+β2agedifij+β3agecholij+β4cholij+eij
We use a linear regression model that allows for correlation between observations from the same individual. Using this model, we estimate the […] parameters in the model, which measure the direction and magnitude of the association between social score change and each of the covariates (i.e., age, age difference, age at cholesterol, and cholesterol). The same model was fit for each of the four outcomes. The table below gives the estimated coefficients for each of the 4 primary outcome variables.

individuals with SLOS = details: cited from earlier work
[2] = 6 SLOS children, model with age, age difference, age at cholesterol, cholesterol
[3] = model leaving out age at cholesterol
[4] = model leaving out age difference from last visit

In the case of `CC(C)CCC[C@@H](C)[C@H]1CC[C@H]2[C@@H]3CC=C4C[C@@H](O)CC[C@]4(C)[C@H]3CC[C@]12C` [Cholesterol, cholesterol], the “Cholesterol effect (regression coefficient) on average change in ADI Nonverbal score per year” value [1, 2] is reported as −2.51, the “Cholesterol effect (regression coefficient) on average change in ADI Repetitive score per year” value [1, 2] is reported as 1.54 and the “Cholesterol effect (regression coefficient) on average change in ADI Social score per year” value [1, 2] is reported as −7.07. The “Cholesterol effect (regression coefficient) on average change in ADI Verbal score per year” value [1, 2] was −6.97, the “ADI Repetitive domain: average worsening” value ([1]; SLOS children on cholesterol supplementation, p value<0.001) was 1.54 points and the “ADI Social domain: average improvement more than children not on supplementation” value ([1]; SLOS individuals on cholesterol supplementation, p value 0.008) was 7.07 points. The “Association of cholesterol supplementation with social, verbal and non-verbal scores (correlation matrix, FIG. 1)” value ([1]; children who have already begun supplementation, not accounting for age or other factors) was “scores tend to be lower on average”, the “Social and communication abilities with cholesterol supplementation” value ([1]; in SLOS) was “improvement was found” and the “Cholesterol effect (regression coefficient) on average change in ADI Nonverbal score per year” value [1, 3] was −2.56. For the same compound, the “Cholesterol effect (regression coefficient) on average change in ADI Repetitive score per year” value [1, 3] was 1.23, the “Cholesterol effect (regression coefficient) on average change in ADI Social score per year” value [1, 3] was −5.14 and the “Cholesterol effect (regression coefficient) on average change in ADI Verbal score per year” value [1, 3] was −6.77. For the same compound, the “Cholesterol effect (regression coefficient) on average change in ADI Nonverbal score per year” value [1, 4] was −2.05, the “Cholesterol effect (regression coefficient) on average change in ADI Repetitive score per year” value [1, 4] was 1.45 and the “Cholesterol effect (regression coefficient) on average change in ADI Social score per year” value [1, 4] was −6.97. For the same compound, the “Cholesterol effect (regression coefficient) on average change in ADI Verbal score per year” value [1, 4] was −4.14, the “ADI language domain (non-verbal) score improvement” value ([1]; non-verbal SLOS children on cholesterol supplementation, p value 0.04) was 2.51 and the “ADI verbal score average change (given as increase)” value ([1]; verbal SLOS children on cholesterol supplementation, p value<0.001) was 6.97 points. For the same compound, the “Developmental status over time with cholesterol supplementation” value (individuals with SLOS; SLOS, one group) was “did not improve”, the “Growth, speech articulation and neurodevelopmental status with cholesterol supplementation” value (individuals with SLOS; SLOS, some reports) was “improves” and the “Irritability, sleep disturbance and obsessive compulsive behavior with cholesterol supplementation” value (individuals with SLOS; individuals with SLOS) was “improve with cholesterol supplementation”.
